Measurements: US20180265515A1 (Genentech, Inc., priority 2015, published 2018)

What was measured:
[1] = biological target: T1, isolated recombinant JAK1 kinase domain (Homo sapiens, UniProt P23458); assay: JAK1 enzyme assay (Caliper LabChip, Ki); assay type: biochemical; conditions: recombinant JAK1 kinase domain, 25 μM ATP
T1 construct: The activity of the isolated recombinant JAK1 and JAK2 kinase domain was measured
Description: (§1) JAK Enzyme Assays were Carried Out as Follows:
(§2) The activity of the isolated recombinant JAK1 and JAK2 kinase domain was measured by monitoring phosphorylation of a peptide derived from JAK3 (Val-Ala-Leu-Val-Asp-Gly-Tyr-Phe-Arg-Leu-Thr-Thr, fluorescently labeled on the N-terminus with 5-carboxyfluorescein) using the Caliper LabChip® technology (Caliper Life Sciences, Hopkinton, Mass.). […] Reactions were incubated at 22° C. in 384-well polypropylene microtiter plates for 30 minutes and then stopped by addition of 25 μL of an EDTA containing solution (100 mM HEPES buffer (pH 7.2), 0.015% Brij-35, 150 mM EDTA), resulting in a final EDTA concentration of 50 mM. After termination of the kinase reaction, the proportion of phosphorylated product was determined as a fraction of total peptide substrate using the Caliper LabChip® 3000 according to the manufacturer's specifications. Ki values were then determined using the Morrison tight binding model (Morrison, J. F., Biochim. Biophys. Acta. 185:269-296 (1969); William, J. W. and Morrison, J. F., Meth. Enzymol., 63:437-467 (1979)) modified for ATP-competitive inhibition [Ki=Ki,app/(1+[ATP]/Km,app)].

[2] = tested on: JAK1-dependent STAT6 phosphorylation downstream of IL-13 stimulation in BEAS-2B human bronchial epithelial cells; assay: JAK1 pathway assay in BEAS-2B cells (IL-13 stimulated STAT6 phosphorylation, MSD); assay type: cell-based; conditions: read-out: P-STAT6 BEAS2B + IL13 IC50
Description: JAK1 Pathway Assay in Cell Lines was Carried Out as Follows:
Inhibitor potency (EC50) was determined in cell-based assays designed to measure JAK1 dependent STAT phosphorylation. As noted above, inhibition of IL-4, IL-13, and IL-9 signaling by blocking the Jak/Stat signaling pathway can alleviate asthmatic symptoms in pre-clinical lung inflammation models (Mathew et al., 2001, J Exp Med 193(9): 1087-1096; Kudlacz et. al., 2008, Eur J. Pharmacol 582(1-3): 154-161).
In one assay approach, TF-1 human erythroleukemia cells obtained from the American Type Culture Collection (ATCC; Manassas, Va.) were used to measure JAK1-dependent STAT6 phosphorylation downstream of IL-13 stimulation. Prior to use in the assays, TF-1 cells were starved of GM-CSF overnight in OptiMEM medium (Life Technologies, Grand Island, N.Y.) supplemented with 0.5% charcoal/dextran stripped fetal bovine serum (FBS), 0.1 mM non-essential amino acids (NEAA), and 1 mM sodium pyruvate. The assays were run in 384-well plates in serum-free OptiMEM medium using 300,000 cells per well. In a second assay approach, BEAS-2B human bronchial epithelial cells obtained from ATCC were plated at 100,000 cells per well of a 96-well plate one day prior to the experiment. The BEAS-2B assay was run in complete growth medium (bronchial epithelial basal medium plus bulletkit; Lonza; Basel, Switzerland).
Test compounds were serially diluted 1:2 in DMSO and then diluted 1:50 in medium just before use. Diluted compounds were added to the cells, for a final DMSO concentration of 0.2%, and incubated for 30 min (for the TF-1 assay) or 1 hr (for the BEAS-2B assay) at 37° C. Then, cells were stimulated with human recombinant cytokine at their respective EC90 concentrations, as previously determined for each individual lot. Cells were stimulated with IL-13 (R&D Systems, Minneapolis, Minn.) for 15 min at 37° C. The TF-1 cell reactions were stopped by the direct addition of 10× lysis buffer (Cell Signaling Technologies, Danvers, Mass.), whereas the BEAS-2B cell incubations were halted by the removal of medium and addition of 1× lysis buffer. The resultant samples were frozen in the plates at −80° C. Compound mediated inhibition of STAT6 phosphorylation was measured in the cell lysates using MesoScale Discovery (MSD) technology (Gaithersburg, Md.). EC50 values were determined as the concentration of compound required for 50% inhibition of STAT phosphorylation relative to that measured for the DMSO control.

[3] = biological target: T2, isolated recombinant JAK2 kinase domain (Homo sapiens, UniProt O60674); assay: JAK2 enzyme assay (Caliper LabChip, Ki); assay type: biochemical; conditions: 25 μM ATP
T2 construct: The activity of the isolated recombinant JAK1 and JAK2 kinase domain was measured
Description: as §1, §2

T2 sequence (O60674 849-1124 limits assumed): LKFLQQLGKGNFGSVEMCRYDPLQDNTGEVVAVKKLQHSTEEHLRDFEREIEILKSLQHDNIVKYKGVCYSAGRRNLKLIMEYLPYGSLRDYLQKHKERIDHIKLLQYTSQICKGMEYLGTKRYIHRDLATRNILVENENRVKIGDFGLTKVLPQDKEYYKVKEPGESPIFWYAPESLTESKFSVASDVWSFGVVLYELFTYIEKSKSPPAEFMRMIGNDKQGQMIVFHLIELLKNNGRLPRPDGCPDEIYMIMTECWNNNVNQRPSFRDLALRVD
T1 sequence (P23458 875-1153 limits assumed): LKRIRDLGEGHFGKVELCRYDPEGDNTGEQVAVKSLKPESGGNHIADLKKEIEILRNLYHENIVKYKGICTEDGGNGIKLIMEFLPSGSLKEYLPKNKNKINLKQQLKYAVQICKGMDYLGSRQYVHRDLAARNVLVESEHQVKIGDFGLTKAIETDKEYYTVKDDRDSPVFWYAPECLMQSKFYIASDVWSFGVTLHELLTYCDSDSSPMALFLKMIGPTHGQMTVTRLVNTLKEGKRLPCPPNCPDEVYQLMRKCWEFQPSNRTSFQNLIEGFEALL

Structure (SMILES) | Ki [1] [nM] | Ki [3] [nM] | IC50 [2] [nM]
CSc1ccc(OC(F)F)c(-c2nn(CC(=O)N3CCN(CCCC#N)CC3)cc2NC(=O)c2cnn3cccnc23)c1 [Example 21, N-[1-[2-[4-(3-cyanopropyl)piperazin-1-yl]-2-oxo-ethyl]-3-[2-(difluoromethoxy)-5-methylsulfanyl-phenyl]pyrazol-4-yl]pyrazolo[1,5-a]pyrimidine-3-carboxamide] | 0.27 | 0.33 | 9.1
CSc1ccc(OC(F)F)c(-c2nn(CC(=O)N3CCC(N4CCN(C)C(=O)C4)CC3)cc2NC(=O)c2cnn3cccnc23)c1 [Example 23, N-[3-[2-(difluoromethoxy)-5-methylsulfanyl-phenyl]-1-[2-[4-(4-methyl-3-oxo-piperazin-1-yl)-1-piperidyl]-2-oxo-ethyl]pyrazol-4-yl]pyrazolo[1,5-a]pyrimidine-3-carboxamide] | 0.24 | 0.31 | 61
CSc1ccc(OC(F)F)c(-c2nn(CC(=O)N3CCC(CN4CCN(CC(=O)N(C)C)CC4)CC3)cc2NC(=O)c2cnn3cccnc23)c1 [Example 25, N-(3-(2-(difluoromethoxy)-5-(methylthio)phenyl)-1-(2-(4-((4-(2-(dimethylamino)-2-oxoethyl)piperazin-1-yl)methyl)piperidin-1-yl)-2-oxoethyl)-1H-pyrazol-4-yl)pyrazolo[1,5-a]pyrimidine-3-carboxamide] | 0.31 | 0.51 | 18
CSc1ccc(OC(F)F)c(-c2nn(CC(=O)N3CCC(N(C)CC(C)C#N)CC3)cc2NC(=O)c2cnn3cccnc23)c1 (stereo not drawn) [Example 29, N-[1-[2-[4-[2-cyanopropyl(methyl)amino]-1-piperidyl]-2-oxo-ethyl]-3-[2-(difluoromethoxy)-5-methylsulfanyl-phenyl]pyrazol-4-yl]pyrazolo[1,5-a]pyrimidine-3-carboxamide] | 0.26 | 0.37 | 9
CSc1ccc(OC(F)F)c(-c2nn(CC(=O)N3CCC(NCC(C)C#N)CC3)cc2NC(=O)c2cnn3cccnc23)c1 (stereo not drawn) [Example 30, N-[1-[2-[4-(2-cyanopropylamino)-1-piperidyl]-2-oxo-ethyl]-3-[2-(difluoromethoxy)-5-methylsulfanyl-phenyl]pyrazol-4-yl]pyrazolo[1,5-a]pyrimidine-3-carboxamide] | 0.29 | 0.38 | 8.7
CSc1ccc(OC(F)F)c(-c2nn(CC(=O)N3CCC(N4CCCC(C#N)C4)CC3)cc2NC(=O)c2cnn3cccnc23)c1 (stereo not drawn) [Example 31, N-[1-[2-[4-(3-cyano-1-piperidyl)-1-piperidyl]-2-oxo-ethyl]-3-[2-(difluoromethoxy)-5-methylsulfanyl-phenyl]pyrazol-4-yl]pyrazolo[1,5-a]pyrimidine-3-carboxamide] | 0.19 | 0.25 | 8.3
CSc1ccc(OC(F)F)c(-c2nn(CC(=O)N3CC4CCN(C)C4C3)cc2NC(=O)c2cnn3cccnc23)c1 (stereo not drawn) [Example 34, N-[3-[2-(difluoromethoxy)-5-methylsulfanyl-phenyl]-1-[2-(1-methyl-2,3,3a,4,6,6a-hexahydropyrrolo[2,3-c]pyrrol-5-yl)-2-oxo-ethyl]pyrazol-4-yl]pyrazolo[1,5-a]pyrimidine-3-carboxamide] | 0.28 | 0.3 | 5.3

The remaining molecules from weak to strong by Ki [1], led by results:

Ki [1] [nM] | Ki [3] [nM] | Structure (SMILES) | IC50 [2] [nM]
0.38 | 0.73 | CSc1ccc(OC(F)F)c(-c2nn(CC(=O)N3CCN(CC4CCN(CC(=O)N(C)C)CC4)CC3)cc2NC(=O)c2cnn3cccnc23)c1 [Example 33, N-[3-[2-(difluoromethoxy)-5-methylsulfanyl-phenyl]-1-[2-[4-[[1-[2-(dimethylamino)-2-oxo-ethyl]-4-piperidyl]methyl]piperazin-1-yl]-2-oxo-ethyl]pyrazol-4-yl]pyrazolo[1,5-a]pyrimidine-3-carboxamide] | 35
0.32 | 0.62 | CSc1ccc(OC(F)F)c(-c2nn(CC(=O)N3CCC(N(C)CC(=O)N4CCC4)CC3)cc2NC(=O)c2cnn3cccnc23)c1 [Example 22, N-[1-[2-[4-[[2-(azetidin-1-yl)-2-oxo-ethyl]-methyl-amino]-1-piperidyl]-2-oxo-ethyl]-3-[2-(difluoromethoxy)-5-methylsulfanyl-phenyl]pyrazol-4-yl]pyrazolo[1,5-a]pyrimidine-3-carboxamide] | 130
0.24 | 0.39 | CSc1ccc(OC(F)F)c(-c2nn(CC(=O)N3CCC(NCC(C)(F)F)CC3)cc2NC(=O)c2cnn3cccnc23)c1 [Example 19, N-[3-[2-(difluoromethoxy)-5-methylsulfanyl-phenyl]-1-[2-[4-(2,2-difluoropropylamino)-1-piperidyl]-2-oxo-ethyl]pyrazol-4-yl]pyrazolo[1,5-a]pyrimidine-3-carboxamide] | 7.4
0.24 | 0.39 | CSc1ccc(OC(F)F)c(-c2nn(CC(=O)N3CCC(N(C)CC(C)(C)C#N)CC3)cc2NC(=O)c2cnn3cccnc23)c1 [Example 26, N-[1-[2-[4-[(2-cyano-2-methyl-propyl)-methyl-amino]-1-piperidyl]-2-oxo-ethyl]-3-[2-(difluoromethoxy)-5-methylsulfanyl-phenyl]pyrazol-4-yl]pyrazolo[1,5-a]pyrimidine-3-carboxamide] | 12
0.23 | 0.32 | CSc1ccc(OC(F)F)c(-c2nn(CC(=O)N3CCC(N4CCSCC4)CC3)cc2NC(=O)c2cnn3cccnc23)c1 [Example 27, N-[3-[2-(difluoromethoxy)-5-methylsulfanyl-phenyl]-1-[2-oxo-2-(4-thiomorpholino-1-piperidyl)ethyl]pyrazol-4-yl]pyrazolo[1,5-a]pyrimidine-3-carboxamide] | 5.1
0.23 | 0.33 | CSc1ccc(OC(F)F)c(-c2nn(CC(=O)N3CCC(N4CCC(C#N)C4)CC3)cc2NC(=O)c2cnn3cccnc23)c1 (stereo not drawn) [Example 32, N-[1-[2-[4-(3-cyanopyrrolidin-1-yl)-1-piperidyl]-2-oxo-ethyl]-3-[2-(difluoromethoxy)-5-methylsulfanyl-phenyl]pyrazol-4-yl]pyrazolo[1,5-a]pyrimidine-3-carboxamide] | 11
0.22 | 0.32 | CSc1ccc(OC(F)F)c(-c2nn(CC(=O)N3CCC(N(C)CC(C)(F)F)CC3)cc2NC(=O)c2cnn3cccnc23)c1 [Example 24, N-[3-[2-(difluoromethoxy)-5-methylsulfanyl-phenyl]-1-[2-[4-[2,2-difluoropropyl(methyl)amino]-1-piperidyl]-2-oxo-ethyl]pyrazol-4-yl]pyrazolo[1,5-a]pyrimidine-3-carboxamide] | 4.9
0.22 | 0.26 | CNCCn1cc(NC(=O)c2cnn3cccnc23)c(-c2cc(SC)ccc2OC(F)F)n1 [Example 28, N-[3-[2-(difluoromethoxy)-5-methylsulfanyl-phenyl]-1-[2-(methylamino)ethyl]pyrazol-4-yl]pyrazolo[1,5-a]pyrimidine-3-carboxamide] | 3
0.2 | 0.33 | CSc1ccc(OC(F)F)c(-c2nn(CC(=O)N3CCC(NCC(C)(C)C#N)CC3)cc2NC(=O)c2cnn3cccnc23)c1 [Example 20, N-[1-[2-[4-[(2-cyano-2-methyl-propyl)amino]-1-piperidyl]-2-oxo-ethyl]-3-[2-(difluoromethoxy)-5-methylsulfanyl-phenyl]pyrazol-4-yl]pyrazolo[1,5-a]pyrimidine-3-carboxamide] | 11
